Laboratory results reported in patent publication US4820694A, “Modifications of 3-O-demethylmycinose in macrocin and lactenocin” (priority 1986, dated 1989).
≈ marks a conversion by molar mass, not a printed value. Like-named read-outs stand apart in the source and are kept apart here.

Assays:
Escherichia coli EC14 = experiment: standard agar-dilution MIC assay; type: cell-based
Description: (§1) The MIC's in Table III were determined by standard agar-dilution assays. The MIC's in Table IV were obtained using conventional brothdilution microtiter tests.

[1] = tested on: Klebsiella pneumoniae X68; experiment: standard agar-dilution MIC assay; type: cell-based; settings: Klebsiella pneumoniae, X68
Description: as §1

[2] = tested on: Pseudomonas aeruginosa X239; experiment: standard agar-dilution MIC assay; type: cell-based; settings: Pseudomonas aeruginosa, X239
Description: as §1

[3] = tested on: Staphylococcus aureus V41; experiment: standard agar-dilution MIC assay; type: cell-based; settings: Staphylococcus aureus, V41
Description: as §1

[4] = tested on: Staphylococcus aureus X1.1; experiment: standard agar-dilution MIC assay; type: cell-based; settings: Staphylococcus aureus, X1.1
Description: as §1

[5] = tested on: Staphylococcus aureus X400; experiment: standard agar-dilution MIC assay; type: cell-based; settings: Staphylococcus aureus, X400
Description: as §1

[6] = tested on: Staphylococcus epidermidis EP12; experiment: standard agar-dilution MIC assay; type: cell-based
Description: as §1

[7] = tested on: Staphylococcus epidermidis EPI1; experiment: standard agar-dilution MIC assay; type: cell-based; settings: Staphylococcus epidermidis, EPI1
Description: as §1

[8] = tested on: Streptococcus Group D 9960; experiment: standard agar-dilution MIC assay; type: cell-based; settings: GROUPD9960, read-out: MIC
Description: as §1

[9] = tested on: Streptococcus Group D X66; experiment: standard agar-dilution MIC assay; type: cell-based; settings: read-out: MIC
Description: as §1

[10] = tested on: Streptococcus pyogenes C203; experiment: standard agar-dilution MIC assay; type: cell-based; settings: Streptococcus pyogenes, C203
Description: as §1

[11] = tested on: Staphylococcus aureus S13E; experiment: microbe, parasite or virus in culture; type: cell-based; settings: Staphylococcus aureus, S13E
Description: as §1

[12] = tested on: Streptococcus pneumoniae Park I; experiment: microbe, parasite or virus in culture; type: cell-based; settings: Streptococcus pneumoniae
Description: as §1

[13] = tested on: Bordetella bronchiseptica; experiment: broth-dilution microtiter MIC test; type: cell-based; settings: Bordetella bronchiseptica
Description: as §1

[14] = tested on: Mycoplasma gallisepticum 15E; experiment: broth-dilution microtiter MIC test; type: cell-based; settings: Mycoplasmoides gallisepticum, 15E
Description: as §1

[15] = tested on: Mycoplasma gallisepticum 29C; experiment: broth-dilution microtiter MIC test; type: cell-based; settings: Mycoplasmoides gallisepticum, 29C
Description: as §1

[16] = tested on: Mycoplasma gallisepticum 36H; experiment: broth-dilution microtiter MIC test; type: cell-based; settings: Mycoplasmoides gallisepticum, 36H
Description: as §1

Mycoplasma hyorhinis 29E = experiment: broth-dilution microtiter MIC test; type: cell-based; settings: Mycoplasma, 29E
Description: as §1

Mycoplasma synoviae 40A = experiment: broth-dilution microtiter MIC test; type: cell-based; settings: Mycoplasmopsis synoviae, 40A
Description: as §1

[17] = tested on: Pasteurella hemolytica 22C; experiment: broth-dilution microtiter MIC test; type: cell-based; settings: Pasteurella, 22C
Description: as §1

[18] = tested on: Pasteurella hemolytica 23C; experiment: broth-dilution microtiter MIC test; type: cell-based; settings: Pasteurella, 23C
Description: as §1

[19] = tested on: Pasteurella hemolytica 41D; experiment: broth-dilution microtiter MIC test; type: cell-based; settings: Pasteurella, 41D
Description: as §1

[20] = tested on: Pasteurella multocida 17E; experiment: broth-dilution microtiter MIC test; type: cell-based; settings: Pasteurella multocida, 17E
Description: as §1

[21] = tested on: Pasteurella multocida 22A; experiment: broth-dilution microtiter MIC test; type: cell-based; settings: Pasteurella multocida, 22A
Description: as §1

[22] = tested on: Pasteurella multocida 40G; experiment: broth-dilution microtiter MIC test; type: cell-based; settings: Pasteurella multocida, 40G
Description: as §1

[23] = tested on: Pasteurella multocida 60A; experiment: broth-dilution microtiter MIC test; type: cell-based; settings: Pasteurella multocida, 60A
Description: as §1

[24] = tested on: Pasteurella multocida 68C; experiment: broth-dilution microtiter MIC test; type: cell-based; settings: Pasteurella multocida, 68C
Description: as §1

[25] = tested on: Staphylococcus aureus 19C; experiment: broth-dilution microtiter MIC test; type: cell-based; settings: Staphylococcus aureus, 19C
Description: as §1

Streptococcus sp. 19F = experiment: broth-dilution microtiter MIC test; type: cell-based; settings: Streptococcus, SP.19F
Description: as §1

Pasteurella multocida = Pasteurella multocida infection in one-day-old chicks; type: in vivo; settings: subcutaneously, 30 mg/kg × 2, 1 and 4 hours post-challenge
Description: Some of the formula 1 compounds have also shown in vivo antibacterial activity against infections induced by Gram-negative bacteria. Table VI summarizes the results of tests in which illustrative compounds were evaluated against a Pasteurella infection in one-day-old chicks. The compounds were administered by subcutaneous injection at a dosage of 30 mg/kg, 1 and 4 hours post-challenge of the chicks with Pasteurella multocida (0.1 ml of a 10^-4 dilution of a twenty-hour tryptose broth culture of an avian P. multocida given subcutaneously). In these tests, unless indicated otherwise, all non-medicated infected chicks died within 24 hours of Pasteurella challenge.
^a Administered subcutaneously; 30 mg/kg × 2

[26] = tested on: Haemophilus influenzae 76; experiment: standard agar-dilution MIC assay; type: cell-based; settings: Haemophilus influenzae, 76; agar-dilution; Ampicillin-resistant strain; read-out: MIC
Description: as §1

[27] = tested on: Haemophilus influenzae C.L.; experiment: standard agar-dilution MIC assay; type: cell-based; settings: Haemophilus influenzae; agar-dilution; Ampicillin-sensitive strain; read-out: MIC
Description: as §1

[28] = tested on: Streptococcus pyogenes C203; experiment: protection of mice experimentally infected with S. pyogenes C203; type: in vivo; settings: C203, sc, Subcutaneous, mice, mg/kg × 2, doses given 1 and 4 hours postinfection, read-out: ED50
In short: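 Activity is given as ED50, the mg/kg dose (×2) protecting half of the mice infected with S. pyogenes C203. Compound was dosed 1 and 4 h after infection.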

[29] = broth-dilution microtiter, read-out: MIC

CCC1OC(=O)CC(O)C(C)C(OC2OC(C)C(O)C(N(C)C)C2OC(C)=O)C(CC=O)CC(C)C(=O)C=CC(C)=CC1COC1OC(C)C(OC(=O)Cc2ccccc2)C(O)C1OC (centres unmarked) [Compound 29, 2'-O-Acetyl-4"-O-phenylacetyl-lactenocin]
MIC (Escherichia coli EC14): > 128 µg/mL | MIC [1]: > 128 µg/mL | MIC [2]: > 128 µg/mL | MIC [3]: 1 µg/mL (≈ 1.09 µM) | MIC [4]: 1 µg/mL (≈ 1.09 µM) | MIC [5]: 1 µg/mL (≈ 1.09 µM) | MIC [6]: 1 µg/mL (≈ 1.09 µM) | MIC [7]: 1 µg/mL (≈ 1.09 µM) | MIC [8]: 1 µg/mL (≈ 1.09 µM) | MIC [9]: 1 µg/mL (≈ 1.09 µM) | MIC [10]: 0.5 µg/mL (≈ 0.545 µM) | MIC [11]: 1 µg/mL (≈ 1.09 µM) | MIC [12]: 0.25 µg/mL (≈ 0.272 µM) | MIC [13]: > 50 µg/mL | MIC [14]: 12.5 µg/mL (≈ 13.6 µM) | MIC [15]: 0.195 µg/mL (≈ 0.212 µM) | MIC [16]: 6.25 µg/mL (≈ 6.81 µM) | MIC (Mycoplasma hyorhinis 29E): 1.56 µg/mL (≈ 1.7 µM) | MIC (Mycoplasma synoviae 40A): 0.195 µg/mL (≈ 0.212 µM) | MIC [17]: 12.5 µg/mL (≈ 13.6 µM) | MIC [18]: 12.5 µg/mL (≈ 13.6 µM) | MIC [19]: 12.5 µg/mL (≈ 13.6 µM) | MIC [20]: 12.5 µg/mL (≈ 13.6 µM) | MIC [21]: 25 µg/mL (≈ 27.2 µM) | MIC [22]: 25 µg/mL (≈ 27.2 µM) | MIC [23]: 25 µg/mL (≈ 27.2 µM) | MIC [24]: 6.25 µg/mL (≈ 6.81 µM) | MIC [25]: 1.56 µg/mL (≈ 1.7 µM) | MIC (Streptococcus sp. 19F): 0.39 µg/mL (≈ 0.425 µM) | Number of Deaths/Number Treated (Pasteurella multocida): 9/10

CCC1OC(=O)CC(O)C(C)C(OC2OC(C)C(O)C(N(C)C)C2OC(C)=O)C(CC=O)CC(C)C(=O)C=CC(C)=CC1COC1OC(C)C(OC(=O)COc2ccccc2)C(O)C1OC (centres unmarked) [Compound 33, 2'-O-Acetyl-4"-O-phenoxyacetyl-lactenocin]
MIC (Escherichia coli EC14; agar-dilution, read-out: MIC): > 128 µg/mL | MIC [26]: 8 µg/mL (≈ 8.56 µM) | MIC [27]: 8 µg/mL (≈ 8.56 µM) | MIC ([1]; agar-dilution, read-out: MIC): > 128 µg/mL | MIC ([2]; agar-dilution, read-out: MIC): > 128 µg/mL | MIC [3]: 1 µg/mL (≈ 1.07 µM) | MIC [4]: 1 µg/mL (≈ 1.07 µM) | MIC ([5]; agar-dilution, Methicillin-resistant strain, read-out: MIC): 2 µg/mL (≈ 2.14 µM) | MIC [7]: 1 µg/mL (≈ 1.07 µM) | MIC [8]: 1 µg/mL (≈ 1.07 µM) | MIC [9]: 1 µg/mL (≈ 1.07 µM) | MIC [10]: 0.5 µg/mL (≈ 0.535 µM) | MIC [11]: 1 µg/mL (≈ 1.07 µM) | MIC ([12]; agar-dilution, read-out: MIC): 0.25 µg/mL (≈ 0.268 µM) | MIC [13]: 50 µg/mL (≈ 53.5 µM) | MIC [14, 29]: 12.5 µg/mL (≈ 13.4 µM) | MIC [15, 29]: 0.39 µg/mL (≈ 0.418 µM) | MIC [16, 29]: 12.5 µg/mL (≈ 13.4 µM) | MIC (Mycoplasma hyorhinis 29E): 3.12 µg/mL (≈ 3.34 µM) | MIC (Mycoplasma synoviae 40A; [29]): 0.39 µg/mL (≈ 0.418 µM) | MIC [17, 29]: 12.5 µg/mL (≈ 13.4 µM) | MIC [18, 29]: 12.5 µg/mL (≈ 13.4 µM) | MIC [19, 29]: 12.5 µg/mL (≈ 13.4 µM) | MIC ([20]; broth-dilution microtiter, Bovine isolate, read-out: MIC): 12.5 µg/mL (≈ 13.4 µM) | MIC [21, 29]: 12.5 µg/mL (≈ 13.4 µM) | MIC [22, 29]: 12.5 µg/mL (≈ 13.4 µM) | MIC ([23]; broth-dilution microtiter, Avian isolate, read-out: MIC): 6.25 µg/mL (≈ 6.69 µM) | MIC [24, 29]: 6.25 µg/mL (≈ 6.69 µM) | MIC [25]: 0.78 µg/mL (≈ 0.835 µM) | MIC (Streptococcus sp. 19F; [29]): 0.39 µg/mL (≈ 0.418 µM) | ED50 [28]: 1.9 mg/kg | Number of Deaths/Number Treated (Pasteurella multocida): 8/10
